The values below come from US9127291B2, “Methods and products for biasing cellular development” (University of Central Florida Research Foundation, Inc., priority 2004, dated 2015).

The test system of data set [1] is LA-N-2 cells. The experiment in a line: Retinoic acid treatment of LA-N-2 human neuroblastoma cells. Format: cell-based. As to conditions: final concentration 10^−6M. The procedure: LA-N-2 cells were obtained from Dr. Jan Blusztajn (Boston University, MA). The cells were cultured in Leibovitz L-15 medium (Gibco, BRL, Burlington, ON) containing 10% fetal calf serum and antibiotic-antimyotic mixture (Gibco) in a humidified incubator at 37° C. without CO2. The medium was replaced every 3 days. For treatment with retinoic acid (RA), the cells were sub-plated at a density of 0.5-1×10^6 cells/plate using 0.25% trypsin/1 mM EDTA (Gibco, BRL) and allowed to attach overnight. A fresh stock of 4 mM all-trans retinoic acid RA (Sigma, St. Louis, Mo.) was prepared in 100% ethanol under amber lighting. […] The media was changed every 48 h during the differentiation of the cells, which was complete after 7-14 days.
Following fixation, HNSCs were briefly washed 3×5 min in Phosphate buffered saline (PBS), then blocked with 3% normal donkey serum in PBS containing 0.05% Tween 20 (PBS-T) and incubated with goat IgG polyclonal anti-human ChAT (1:500, Chemicon), mouseIgG2b monoclonal anti-human βIII-tubulin (1:1000, Sigma) or rabbit anti-human […] (GFAP) (1:1000, Sigma) overnight at 4° C. The corresponding secondary antibodies (donkey anti-goat, donkey anti-mouse, and donkey anti-rabbit, respectively) conjugated to rhodamine or FITC (Jackson IR Laboratories, Inc.) were added for a 2 hr incubation at RT in the dark. […]

Data set [2] deals with HNSCs. In words: Co-culture of HNSCs transfected with human Lhx8 gene with RA-treated LA-N-2 cells. The format is cell-based. As to conditions: co-culture with RA-treated LA-N-2 cells. As to the method: Using the same vector formation and transfection methods as in Example 2, the Human Lxh8 gene (SEQ ID NO: 6) is transfected into HNSCs. Transfected NHSC cells are cultured in a first treatment that includes LA-N-2 cells that are treated with RA and that express both Lhx8 and ChAT. A co-culture control comprises NHSCs that are not transfected but that are in the same culture vessel as LA-N-2 that are treated with RA and that express both Lhx8 and ChAT. For the first treatment and the co-culture control, HNSC cells are placed in cell culture inserts with an appropriate pore size and suspended in basal media (in the absence of FGF-2 and EGF and without the addition of other extrinsic differentiation factors) over differentiated LA-N-2 cells plated in 6-well plates.
Immunochemistry follows the same procedure as in Example 2 above.

The subject of data set [3] is Human Neural Stem Cells (HNSCs). The experiment in a line: Differentiation of Hath1-transfected HNSCs (calretinin immunocytochemistry, Western blot, electron microscopy). Format: cell-based. The procedure:
An established a non-serum HNSC culture system was utilized to investigate the differentiation of human neural stem cells (HNSCs) within a defined condition. (Christopher L. Brannen and Kiminobu Sugaya, Regeneration and Transplantation, 11:5, 1123-1128 (2000)). The serum-free supplemented growth medium consisted of HAMS-F12 (Gibco, BRL, Burlington, ON), antibiotic/antimycotic mixture (1:100, Gibco), B27 (1:50, Gibco), human recombinant FGF-2 and EGF (20 ng/ml each, R and D Systems, Minneapolis, Minn.), and heparin (5 ug/ml, Sigma, St. Louis, Mo.). Cells were maintained in 20 ml of this medium at 37° C. in a 5% CO2 humidified incubation chamber.
The mammalian expression vector containing Hath1 gene was transfected into HNSCs by using the Neuroporter Kit (Gene Therapy Systems, Inc. San Diego, Calif.) and Hath 1 gene expression was confirmed by RT-PCR. These Hath1-transfected HNSCs were differentiated for 7 days by the depletion of mitotic factors (FGF-2, EGF) from the culture media. After the differentiation the cells were fixed for immunocytochemistry and Electron Microscopy.
The gene expression of Hath1 is assessed by RT-PCR with the following condition: 95° C. (60″), 56° C. (60″), 72° C. (60″) for 35 cycles, with an initial denaturation of 95° C. (5′) and final elongation of 72° C. (15′). The Hath1 gene is transfected into Human Neural Stem Cells (HNSCs) using the Neuroporter Kit. The Neuroporter kit utilizes a lipid-based transfection system for the use with cultured primary neurons, neuronal cell lines, and glial cells. DNA and Neuroporter are used in a ratio of 10 μg DNA/75 μl Neuroporter, utilizing 37.5 μl per well in a 6-well plate and with total volumes of 1.5 mL growth media per well. […]
Following PBST washing, the cells are incubated with secondary antibody biotinylated anti-rabbit made in goat in PBS containing 0.05% Triton-X100 (PBST), with a dilution factor of 1:200. […] The cells are washed with water, ethanol, and xylene, coverslipped with permount, and ready for viewing with microscopy. […]

In data set [4] the test system is HNSCs. In words: Co-culture of Lhx8-transfected HNSCs with RA-treated LA-N-2 cells, immunocytochemistry. Format: cell-based, human. The procedure:
HNSCs culture: Human NSCs were originally purchased from BioWhittaker, Walkersville, Md. These cells have been expanded and passaged in a serum-free culture medium containing bFGF and EGF in our laboratory for over three years (Brannen & Sugaya, 2000). The HNSCs were cultured at a density of 50 spheres in 75 cm^2 culture flasks (Corning, Cambridge, Mass.) in 20 ml of a serum-free supplemented growth medium consisting of HAMS-F12 (Gibco, BRL, Burlington, ON), antibiotic-antimycotic mixture (1:100, Gibco), B27 (1:50, Gibco), human recombinant FGF-2 and EGF (20 ng/ml each, R&D Systems, Minneapolis, Minn.) and heparin (5 μg/ml, Sigma, St. Louis, Mo.) incubated at 37° C. in a 5% CO^2 humidified incubation chamber (Fisher, Pittsburgh, Pa.). To facilitate optimal growth conditions, HNSCs were sectioned into quarters every 2 weeks and fed by replacing 50% of the medium every 4-5 days.
HNSCs were placed in 6-well poly-lysine coated plates and transfected with 4 μg pcDNA 3.1/Lhx8 plasmid using the Neuroporter transfection system (Gene Therapy Systems, see description in Example 1). Upon the insertion of the Lhx8 gene expressible sequence into the directional cloning vector, the expressible sequence was operatively linked to the CMV promoter, and was also positioned upstream (with regard to reading) of a polyadenylation transcription termination site. Lhx8 expression was confirmed after 48 hrs by RT-PCR using primers designed from the gene cDNA sequence; 5′[…]′ 3 (SEQ ID NO: 12, upper primer) and 5′[…]′3 (SEQ ID NO: 13, lower primer). To initiate differentiation, HNSCs were placed in serum-free basal medium, and allowed to differentiate for 10-15 days in culture.
HNSCs (˜5×10^4) transfected with pcDNA 3.1/Lhx8 and non-transfected HNSCs (controls) were transferred into cell culture inserts with an appropriate pore size and suspended in basal media (in the absence of FGF-2 and EGF and without the addition of other extrinsic differentiation factors) over differentiated LA-N-2 cells plated in 6-well plates. […]

Entries after “also recorded” stand apart in the source; their conditions may differ.

`CC1=C(/C=C/C(C)=C/C=C/C(C)=C/C(=O)O)C(C)(C)CCC1` [RA, all-trans retinoic acid]: in data set [1] (RA), the “Lhx8 and ChAT gene expression by RT-PCR compared with non-treated cells” value is given as “increased expression”. Further, the “marker expression in LA-N-2 cells (immunostaining)” value in data set [1] (RA-containing media, 7-14 days) was “expressed Lhx8, βIII-tubulin, and ChAT”.

As for “Human Lxh8 gene: Human Lxh8 gene (SEQ ID NO: 6) transfected into HNSCs with the vector and methods of Example 2”, in data set [2], the “differentiated cell type (βIII-tubulin, ChAT staining)” value was “positive for βIII-tubulin and ChAT”.

For the molecule “Hath1: Hath1 gene amplified from BAC clone RP11-680J17, cloned into mammalian expression vector pcDNAHismax TOPO TA under CMV promoter”, the “cell morphology by electron microscopy” value in data set [3] (transfected HNSCs after differentiation) was “typical IEHC morphology; also recorded: distinct hair-like projections”. Further, the “calretinin expression by Western blot” value in data set [3] (transfected HNSCs differentiated for 7 days) was “single band specific to calretinin molecular weight”. The “calretinin (hair cell marker) expression by immunocytochemistry” value in data set [3] (transfected HNSCs differentiated for 7 days without FGF-2, EGF) was “existence of cells expressing calretinin”.

B1: Lhx8: mouse cDNA clone for Lhx8 (SEQ ID NO: 7) inserted into pcDNA 3.1/Zeo mammalian expression vector (nucleic acid, listed as Mus musculus)
DNA: GAATTCGGCACGAGCTTCAGGAAAAGACTTTTCCCCCCACTCCCCCTCCTCTCTGCGAGGTTCCACCCTCTGGAAAACACAACTTTCCCTCTTTTTCTGGAGGGACAGGCCTTAGTGTGGCTGAGAGAGGAAGAACAGTGGGTCAGAGAGTGGTTACGTCACTGTGGCCTTTTTGGAACAAGACACACTGGTGGCATCGCTGTCCTGCCTGTTAGCTTTCCTTGGCCTTTGGGGGCGGAGGAGGGGACACTGCGGACACCCACAGCCTCTGACCCTGCTGGAGCTGGTATGTGACGAGCAGCCCTCGGGCCATGTATTGGAAGAGCGATCAGATGTTTGTGTGTAAGCTGGAGGGAAAGGAGATGCCGGAGCTGGCGGTTCCCCGCGAGATGTGCCCCGGGCTCATGTCGGAGGAGTGCGGGCGGCCTGCAGCTGGCGCCGGGAGGACCCGCAAAGGCTCTGGGGAAGAAGGACTGGTGAATCCCGAGGGAGCCGGGGACGAGGACTCCTGCTCCTCCTCGGGCCCGCTTTCCCCGTCGTCCTCGCCCCAGTCCATGGCCTCGGGTCCGATGTGCCCGCCAGGCAAGTGTGTGTGCAGCAGCTGCGGCCTGGAGATTGTGGACAAATACCTCCTCAAGGTGAATGACTTATGCTGGCATGTCCGCTGTCTCTCCTGCAGTGTCTGCAGAACGTCCCTGGGAAGGCACACGAGCTGCTACATTAAGGATAAAGATATTTTCTGTAAACTCGATTACTTCAGACGGTATGGGACCCGCTGTTCCCGCTGTGGCAGGCACATCCACTCGACTGACTGGGTCCGCAGGGCAAAGGGCAACGTGTATCACCTGGCCTGCTTTGCCTGCTTTTCTTGCAAGAGGCAGCTGTCCACGGGAGAGGAGTTCGCCTTGGTGGAGGAGAAGGTCCTCTGTAGAGTGCACTTTGACTGCATGCTGGACAATCTGAAGAGAGAAGTGGAGAACGGTAATGGGATTAGTGTGGAAGGAGCCCTTCTCACAGAGCAAGACGTCAATCATCCAAAGCCAGCCAAAAGAGCTCGGACCAGCTTCACAGCCGATCAGCTCCAGGTTATGCAAGCACAGTTCGCTCAGGACAACAACCCAGATGCACAGACCCTCCAGAAACTGGCAGAAAGGACAGGCTTAAGCAGACGTGTCATACAGGTGTGGTTTCAGAACTGCAGGGCCCGCCATAAGAAACACGTCAGCCCAAACCATTCTTCCTCGGCCCCCGTCACAGCTGTCCCCTCCTCCAGGCTGTCCCCACCCATCTTGGAAGAAATGGCTTATTCTGCCTACGACCCCCAGGATGACGGGATGCTGACTGCGCACTCATACTTGGATGCTCACCAACAACTCCTGGACTCCAGCCCTTGTTACCCCATCCAATGACCCAGCTGCCAATAAGTCATACCTAATTCCTTCTTTCAGGGATAGAAATGATTGAGGTTATAAACTTGTCATTTTATTATGTATAAAAATA
In the case of B1, the “differentiated cell type (βIII-tubulin, ChAT staining)” value in data set [4] (co-culture with LA-N-2 cholinergic cells, serum-free, 10-20 days) was “differentiated into mainly βIII-tubulin and ChAT-positive cells; also recorded: differentiated mostly neurons with long extended processes”. Further, the “percentage of transfected cells with characteristics of cholinergic neurons” value in data set [4] (one trial, end of trial) was “over 40%”. In addition, the “number of cells differentiating to cells having characteristics of cholinergic cells, versus non-transfected HNSCs” value in data set [4] (transfected HNSCs cultured without differentiated LA-N-2 cells) is recorded as “no significant difference”.
